Like-named read-outs stand apart in the source and are kept apart here.
Columns and labels:
[1] = rats, oral dosing; cited from earlier work
[2] = Solubility of compound (6) in water and PBS; format: physicochemical
Procedure: (§1) The hydrochloride (3.42 g, 9.89 mmol) was crystallized by dissolution in a mixture of ethanol and toluene (1/10 v/v, 110 mL) at 80° C. and the mixture allowed to cool to room temperature. Large needle-like crystals started to form after standing at room temperature for 48 h. The solution was filtered after standing for 7 days at room temperature. The product (6) was isolated as a white crystalline solid (2.7 g, 79% yield). ^1H-NMR (400 MHz, CD3OD): δ 7.16-7.24 (m, 3H), 4.81-4.85 (dd, J=12.4, 4.4 Hz, 1H), 4.59-4.63 (dd, J=12.0 Hz, 3.2 Hz, 1H), 4.45-4.49 (dd, J=4.4, 2.8 Hz, 1H), 2.98-3.02 (m, 2H), 1.18-1.19 (d, J=7.2 Hz, 12H). MS (ESI) m/z 310.3 (M+H)^+. Melting point: 188.1-189.1° C.

[3] = Stability at room temperature determined by LC/MS; format: physicochemical; conditions: after three months
Procedure: as §1

SMILES | administered drug undergoing first pass metabolism [1] | solubility ([2]; phosphate buffered saline (PBS), aqueous buffer, read-out: solubility in phosphate buffered saline (PBS)) [mg/mL] | solubility ([2]; water, read-out: solubility in water) [mg/mL] | degradation as an aqueous solution ([3]; aqueous solution) | degradation as a solid ([3]; solid)
CC(C)c1cccc(C(C)C)c1O [propofol, 2,6-diisopropylphenol] | approximately 90% | – | – | – | –
CC(C)c1cccc(C(C)C)c1OC(=O)OC[C@H](N)C(=O)O.Cl [compound (6), (S)-2-Amino-3-(2,6-Diisopropylphenoxy-carbonyloxy)-Propanoic Acid Hydrochloride] | – | 8.18 | 7.58 | no degradation | no degradation
